Results published in patent publication US12102648B2, “Orally-bioavailable nucleoside analogs” (priority 2021, dated 2024).
Where two headings read alike, the source gives them in different places.

Assay: in vitro
Format: in vitro ADME
Conditions: human
Experimental: The bidirectional permeability of compounds across the Caco-2 cell monolayer was assessed. The Caco-2 model is a widely used in vitro model for small intestinal absorption and potential for efflux.
Cell culture. Caco-2 cells were grown in DMEM supplemented with 10% fetal bovine serum (FBS), 1% Penicillin-Streptomycin and 1% MEM NEAA. The cells were incubated at 37° C., 5% CO2/95% air and saturated humidity. After reaching 80-90% confluency, the cells were gently detached with trypsin. Cells at passage 39 were seeded on the 24-well BD insert system at the density of 8×10^4 cells/cm^2 and cultured for 19 days with medium changed every 2-3 days. Measure the transepithelial electrical resistance (TEER) value of each well. The wells can be used only when their TEER values are greater than 600 Ohms/cm^2.
Transport assay. After removing the cell culture medium from the 24-well insert plate, the cells were rinsed with warm transport buffer. Appropriate dosing and receiving solutions were applied to the donor and receiver chambers to initiate the transport assay in apical to basolateral (A to B) or basolateral to apical (B to A) directions ([…] for apical and basolateral wells, respectively). Duplicate wells in each direction were used for the test compound and control compound. The plate was incubated in CO2 incubator at 37° C., with 5% CO2/95% air and saturated humidity without shaking. The sample after 10-minute incubation was used as the T0 sample, and the sample after 90-minute incubation was used as the T90 sample. To and T90 samples were collected from the donor and receiver side of each well at the designed timepoint, mixed with the transport buffer and acetonitrile/MeOH (1:1, v/v) and the internal standard for LC/MS/MS analysis. All samples were vortexed and centrifuged at 4000 rpm at 4° C. for 15 minutes, diluted with pure water and stored at 4° C. before bioanalysis by LC/MS/MS.
Sample analysis. The concentrations of test compounds and control compounds in Caco-2 cells were quantitatively determined by LC/MS/MS method after protein precipitation.
Calculations. The apparent permeability (Papp, cm/s), efflux ratio (ER) and recovery parameters were calculated for Caco-2 drug transport assay using the following equations:
[formula] [formula] where VR is the solution volume in the receiver chamber (0.4 mL on the apical side, 1.2 mL on the basolateral side); Area is the surface area for the insert membrane, i.e., 0.3 cm^2 for the area of the monolayer; Time is incubation time, expressed in seconds, i.e., 5400 s (90 min) for the current experiment; Co is the initial concentration of test compound or peak area ratio of control compounds in the donor chamber (μM); VD is the volume in the donor chambers (0.4 mL on the apical side, 1.2 mL on the basolateral side); CD and CR are the final concentrations of test compounds or peak area ratio of control compounds in donor and receiver chambers, respectively.
Compounds with Papp<1.0 are classified as low permeability, Papp between 1-10 are classified as medium permeability, and Papp≥10 are classified as high permeability. An efflux ratio (ER)>2 indicates the compounds are potential substrates for intestinal cell efflux transporters.

[1] = Caco-2 monolayer, apical to basolateral, 90-minute incubation, read-out: Papp, A-B
[2] = Caco-2 monolayer, basolateral to apical, 90-minute incubation, read-out: Papp, B-A
[3] = Caco-2 monolayer, ER>2 indicates potential efflux transporter substrate, read-out: ER (efflux ratio)

| SMILES | Papp A→B at 90 min (Caco-2) | Papp B→A at 90 min (Caco-2) | efflux ratio at 90 min (Caco-2) | Papp A→B at 90 min [1] | Papp B→A at 90 min [2] | efflux ratio at 90 min [3] |
| --- | --- | --- | --- | --- | --- | --- |
| CC(=O)Nc1ncnn2c([C@]3(C#N)O[C@H](COC(=O)[C@@H](N)C(C)(C)C)[C@@H](OC(=O)CC4CCCCC4)[C@H]3O)ccc12 [Compound 373, ((2R,3S,4R,5R)-5-(4-acetamidopyrrolo[2,1-f][1,2,4]triazin-7-yl)-5-cyano-3-(2-cyclohexylacetoxy)-4-hydroxytetrahydrofuran-2-yl)methyl (S)-2-amino-3,3-dimethylbutanoate] | 24 ×10⁻⁶ cm/s | 29 ×10⁻⁶ cm/s | 1.2 | – | – | – |
| CCC(=O)O[C@H]1[C@@H](O)[C@](C#N)(c2ccc3c(NC(=O)C(C)C)ncnn23)O[C@@H]1COC(=O)[C@@H](N)C(C)C [Compound 362, ((2R,3S,4R,5R)-5-cyano-4-hydroxy-5-(4-isobutyramidopyrrolo[2,1-f][1,2,4]triazin-7-yl)-3-(propionyloxy)tetrahydrofuran-2-yl)methyl L-valinate] | 4.6 ×10⁻⁶ cm/s | 6.7 ×10⁻⁶ cm/s | 1.5 | – | – | – |
| Cc1oc(=O)oc1COC(=O)Nc1ncnn2c([C@]3(C#N)O[C@H](COC(=O)Cc4ccccc4)[C@@H](OC(=O)[C@@H](N)C(C)C)[C@H]3O)ccc12 [Compound 383, (2R,3S,4R,5R)-5-cyano-4-hydroxy-5-(4-((((5-methyl-2-oxo-1,3-dioxol-4-yl)methoxy)carbonyl)amino)pyrrolo[2,1-f][1,2,4]triazin-7-yl)-2-((2-phenylacetoxy)methyl)tetrahydrofuran-3-yl L-valinate] | – | – | – | < 1 ×10⁻⁶ cm/s | < 1 ×10⁻⁶ cm/s | – |
| N#C[C@@]1(c2ccc3c(N)ncnn23)O[C@H](COC(=O)CC2CC2)[C@@H](O)[C@H]1O [Compound 258, [(2R,3S,4R,5R)-5-{4-aminopyrrolo[2,1-f][1,2,4]triazin-7-yl}-5-cyano-3,4-dihydroxyoxolan-2-yl]methyl 2-cyclopropylacetate] | 0.09 ×10⁻⁶ cm/s | 0.3 ×10⁻⁶ cm/s | 3.5 | – | – | – |
| CCCCOC(=O)Nc1ncnn2c([C@]3(C#N)O[C@H](COC(=O)C(C)(C)C4CCCCC4)[C@@H](O)[C@H]3O)ccc12 [Compound 379, ((2R,3S,4R,5R)-5-(4-((butoxycarbonyl)amino)pyrrolo[2,1-f][1,2,4]triazin-7-yl)-5-cyano-3,4-dihydroxytetrahydrofuran-2-yl)methyl 2-cyclohexyl-2-methylpropanoate] | 1.6 ×10⁻⁶ cm/s | 2.5 ×10⁻⁶ cm/s | 1.6 | – | – | – |
| CCC(=O)O[C@H]1[C@@H](O)[C@](C#N)(c2ccc3c(N)ncnn23)O[C@@H]1COC(=O)Cc1ccccc1 [Compound 47, (2R,3S,4R,5R)-5-(4-aminopyrrolo[2,1-f][1,2,4]triazin-7-yl)-5-cyano-4-hydroxy-2-((2-phenylacetoxy)methyl)tetrahydrofuran-3-yl propionate] | – | – | – | 2 ×10⁻⁶ cm/s | 5.1 ×10⁻⁶ cm/s | 2.5 |
| CC(=O)O[C@@H]1[C@H](OC(=O)[C@@H](N)C(C)C)[C@@H](COC(=O)Cc2ccccc2)O[C@@]1(C#N)c1ccc2c(N)ncnn12 [Compound 343, (2R,3R,4R,5R)-4-acetoxy-5-(4-aminopyrrolo[2,1-f][1,2,4]triazin-7-yl)-5-cyano-2-((2-phenylacetoxy)methyl)tetrahydrofuran-3-yl L-valinate] | – | – | – | 1.2 ×10⁻⁶ cm/s | 6.5 ×10⁻⁶ cm/s | 5.6 |
| CC(C)C(=O)OC[C@H]1O[C@@](C#N)(c2ccc3c(NC(=O)[C@@H](N)C(C)C)ncnn23)[C@H](O)[C@@H]1O [Compound 116, [(2R,3S,4R,5R)-5-{4-[(2S)-2-amino-3-methylbutanamido]pyrrolo[2,1-f][1,2,4]triazin-7-yl}-5-cyano-3,4-dihydroxyoxolan-2-yl]methyl 2-methylpropanoate] | 0.15 ×10⁻⁶ cm/s | 1.2 ×10⁻⁶ cm/s | 7.9 | – | – | – |
| N#C[C@@]1(c2ccc3c(NC(=O)c4ccccc4)ncnn23)O[C@H](COC(=O)CC2CCCCC2)[C@@H](O)[C@H]1O [Compound 285, ((2R,3S,4R,5R)-5-(4-benzamidopyrrolo[2,1-f][1,2,4]triazin-7-yl)-5-cyano-3,4-dihydroxytetrahydrofuran-2-yl)methyl 2-cyclohexylacetate] | 1.1 ×10⁻⁶ cm/s | 0.9 ×10⁻⁶ cm/s | 0.83 | – | – | – |
| N#C[C@@]1(c2ccc3c(NC(=O)[C@@H](N)Cc4ccc(F)cc4)ncnn23)O[C@H](COC(=O)Cc2ccccc2)[C@@H](O)[C@H]1O [Compound 97, ((2R,3S,4R,5R)-5-(4-((S)-2-amino-3-(4-fluorophenyl)propanamido)pyrrolo[2,1-f][1,2,4]triazin-7-yl)-5-cyano-3,4-dihydroxytetrahydrofuran-2-yl)methyl 2-phenylacetate] | – | – | – | 3.8 ×10⁻⁶ cm/s | 6.6 ×10⁻⁶ cm/s | 1.8 |
| CC(C)(C)[C@H](N)C(=O)O[C@H]1[C@@H](O)[C@](C#N)(c2ccc3c(N)ncnn23)O[C@@H]1COC(=O)CC1CCCCC1 [Compound 397, (2R,3S,4R,5R)-5-(4-aminopyrrolo[2,1-f][1,2,4]triazin-7-yl)-5-cyano-2-((2-cyclohexylacetoxy)methyl)-4-hydroxytetrahydrofuran-3-yl (S)-2-amino-3,3-dimethylbutanoate] | 2.8 ×10⁻⁶ cm/s | 7.3 ×10⁻⁶ cm/s | 2.6 | – | – | – |
| N#C[C@@]1(c2ccc3c(N)ncnn23)O[C@H](COC(=O)CC2CCNCC2)[C@@H](O)[C@H]1O [Compound 267] | 0.42 ×10⁻⁶ cm/s | 0.27 ×10⁻⁶ cm/s | 0.65 | – | – | – |
| CCCC(=O)Nc1ncnn2c([C@]3(C#N)O[C@H](COC(=O)[C@@H](N)C(C)C)[C@@H](OC(=O)CC)[C@H]3O)ccc12 [Compound 357, ((2R,3S,4R,5R)-5-(4-butyramidopyrrolo[2,1-f][1,2,4]triazin-7-yl)-5-cyano-4-hydroxy-3-(propionyloxy)tetrahydrofuran-2-yl)methyl L-valinate] | 3.1 ×10⁻⁶ cm/s | 6 ×10⁻⁶ cm/s | 1.9 | – | – | – |
| N#C[C@@]1(c2ccc3c(N)ncnn23)O[C@H](COC(=O)Cc2ccccc2)[C@@H](OC(=O)Cc2ccccc2)[C@H]1O [Compound 44, (2R,3S,4R,5R)-5-(4-aminopyrrolo[2,1-f][1,2,4]triazin-7-yl)-5-cyano-4-hydroxy-2-((2-phenylacetoxy)methyl)tetrahydrofuran-3-yl 2-phenylacetate] | – | – | – | 9.8 ×10⁻⁶ cm/s | 25 ×10⁻⁶ cm/s | 2.5 |
| N#C[C@@]1(c2ccc3c(N)ncnn23)O[C@H](COC(=O)CC23CC4CC(CC(C4)C2)C3)[C@@H](O)[C@H]1O [Compound 263, ((2R,3S,4R,5R)-5-(4-aminopyrrolo[2,1-f][1,2,4]triazin-7-yl)-5-cyano-3,4-dihydroxytetrahydrofuran-2-yl)methyl 2-((3R,5R,7R)-adamantan-1-yl)acetate] | 13 ×10⁻⁶ cm/s | 19 ×10⁻⁶ cm/s | 1.5 | – | – | – |
| Cc1oc(=O)oc1COC(=O)Nc1ncnn2c([C@]3(C#N)O[C@H](COC(=O)CC4CCCCC4)[C@@H](OC(=O)[C@@H](N)C(C)C)[C@H]3O)ccc12 [Compound 385, (2R,3S,4R,5R)-5-cyano-2-((2-cyclohexylacetoxy)methyl)-4-hydroxy-5-(4-((((5-methyl-2-oxo-1,3-dioxol-4-yl)methoxy)carbonyl)amino)pyrrolo[2,1-f][1,2,4]triazin-7-yl)tetrahydrofuran-3-yl L-valinate] | < 1 ×10⁻⁶ cm/s | < 1 ×10⁻⁶ cm/s | – | – | – | – |
| CNc1nc(N)nc2c1ncn2[C@@H]1O[C@H](COC(C)=O)[C@@H](OC(=O)CC(C)C)[C@@]1(C)F [Compound 186, (2R,3R,4R,5R)-2-(acetoxymethyl)-5-(2-amino-6-(methylamino)-9H-purin-9-yl)-4-fluoro-4-methyltetrahydrofuran-3-yl 3-methylbutanoate] | 19 ×10⁻⁶ cm/s | 7.2 ×10⁻⁶ cm/s | 0.38 | – | – | – |
| CCCCCOC(=O)Nc1ncnn2c([C@]3(C#N)O[C@H](COC(=O)[C@@H](N)C(C)C)[C@@H](O)[C@H]3O)ccc12 [Compound 86, ((2R,3S,4R,5R)-5-cyano-3,4-dihydroxy-5-(4-(((pentyloxy)carbonyl)amino)pyrrolo[2,1-f][1,2,4]triazin-7-yl)tetrahydrofuran-2-yl)methyl L-valinate] | 0.33 ×10⁻⁶ cm/s | 11 ×10⁻⁶ cm/s | 35 | – | – | – |
